In US8980924B2, “Non-retinoid RBP4 antagonist for treatment of age-related macular degeneration and stargardt disease” (The Trustees of Columbia University in the City of New York, priority 2010, dated 2015):

What was measured:
insulin sensitivity = conditions: mouse diabetes models; cited from earlier work
ERG b-wave = ERG b-wave after photobleaching; format: in vivo; conditions: FIG. 10
RBP4-TTR interaction = target: T1, RBP4-TTR interaction (Homo sapiens, UniProt P02753); assay: TR-FRET (HTRF) RBP4-TTR interaction assay, agonist mode; format: biochemical; conditions: without retinol, FIG. 8
T1 construct: made in house; host or cells: E. coli
Text: TR-FRET (Time-Resolved Fluorescence Resonance Energy Transfer) is an assay format that can be used in characterization of compounds affecting protein-protein interactions (31-33). […] In the presence of retinol, RBP4-TTR interaction induces FRET that can be registered as increased ratio of […] fluorescence signals. Binding of a desired RBP4 antagonist displaces retinol and induces hindrance for RBP4-TTR interaction resulting in the decreased FRET signal (FIG. 7).
The inventors developed an assay using E. coli-expressed MBP-tagged RBP4 and commercially available TTR labeled directly with Eu3+ cryptate. In addition to MBP-RBP4 and Eu3+ (K)-TTR, a detector reagent anti-MBP-d2 was present in the mix. The assay was first optimized in the agonist mode; sensitivity and dynamic range of the assay was […] in respect to RBP4, TTR and detection reagent concentrations.

[1] = tested on: bisretinoids (A2E/isoA2E, A2-DHP-PE, atRAL di-PE); assay: Bisretinoid levels in eyes of treated mice (tissue extraction and HPLC); format: in vivo; conditions: orally dosed for 3 weeks at 30 mg/kg
Text: (§1) The Abca4−/− mouse model manifests accelerated accumulation of lipofuscin in the RPE and is considered a preclinical efficacy model for a drug reducing lipofuscin accumulation. […] There was approximately a 70% reduction in the serum RBP4 level in treated animals (FIG. 11). Additionally, the inventors discovered that that the levels of A2E/isoA2E were reduced by approximately 50% in treated mice (FIG. 12).
Abca4/Abcr null mutant mice (albino) homozygous for Rpe65-Leu450 are bred genotyped and housed. Posterior eyecups of mice and RPE/choroids harvested from human donor eyes (National Disease Research Interchange, Philadelphia Pa.) are homogenized in phosphate buffered saline (PBS) using a glass tissue grinder and extracted in chloroform/methanol (2:1). […] An Alliance system (Waters, Corp, Milford, Mass.) equipped with 2695 Separation Module, 2996 Photodiode Array Detector, a 2475 Multi λ Fluorescence Detector and operating with Empower® software is used for HPLC analysis. […] HPLC quantification is carried out using the Empower® software to determine peak areas. […] Molar quantity per murine eye is determined using calibration curves constructed from known concentrations of purified external standards and by normalizing to the ratio of the HPLC injection volume (10 μL) versus total extract volume.

serum RBP4 = target: T2, serum RBP4 (Mus musculus, UniProt Q00724); assay: Serum RBP4 level in treated mice; format: in vivo; conditions: orally dosed for 3 weeks at 30 mg/kg; wild-type and Abca4−/− mice; FIG. 11
T2 construct: from tissue; host or cells: mouse serum (in vivo, oral dosing)
Text: as §1

A2E production = conditions: Abca4−/− mice, reference 11; cited from earlier work
serum RBP4 and retinol = serum RBP4 and retinol (Rattus norvegicus, UniProt P04916); conditions: reference 15; cited from earlier work

O=C(O)c1ccccc1NC(=O)N1CCC(c2ccccc2C(F)(F)F)CC1 [Compound 1, 2(4-(2-(trifluoromethyl)phenyl)piperidine-1-carboxamido)benzoic acid]
effect on insulin sensitivity (insulin sensitivity): did not improve insulin sensitivity
effect on ERG b-wave after photobleaching (ERG b-wave): does not reduce ERG b-wave
induction of RBP4-TTR interaction (RBP4-TTR interaction): did not induce RBP4-TTR interaction
levels of A2-DHP-PE and atRAL di-PE [1]: also reduced
reduction in the serum RBP4 level (serum RBP4): ~70%

CC1=C(/C=C/C(C)=C/C=C/C(C)=C/C(=O)Nc2ccc(O)cc2)C(C)(C)CCC1 [fenretinide, N-(4-hydroxy-phenyl)retinamide]
effect on A2E production (A2E production): reduced A2E production
induction of RBP4-TTR interaction (RBP4-TTR interaction): did not induce RBP4-TTR interaction
effect on serum RBP4 and retinol (serum RBP4 and retinol): reduce serum RBP4 and retinol
